For one data set, the system named is Panc-1. Briefly: Pancreatic cancer cell growth, 24 h. In kind it is cell-based, human. The settings on record: Panc-1, escalating concentrations. Here is the method:
(§1) Cell growth was determined in the human pancreatic cancer cell lines AsPC-1, CFPAC-1, Capan-2, Panc-1 and MIA PaCa-2 after treatment with escalating concentrations of P-FTS 35 for 24 h.

The subject of the next data set is CFPAC-1. Briefly: Pancreatic cancer cell growth, 24 h. In kind it is cell-based, human. The note with it: CFPAC-1, escalating concentrations. Here is the method:
as §1

The next data set concerns Capan-2. Briefly: Pancreatic cancer cell growth, 24 h. The settings on record: Capan-2, escalating concentrations. The data set is classed as cell-based, human. Here is the method:
as §1

In a further data set the test system is AsPC-1. The data set can be described thus: Pancreatic cancer cell growth, 24 h. The settings on record: AsPC-1, escalating concentrations. The data set is classed as cell-based, human. The method, then: as §1
A further data set relates to MIA PaCa-2. The data set can be described thus: Pancreatic cancer cell growth, 24 h. In kind it is cell-based, human. The note with it: MIA PaCa-2, escalating concentrations. The method, then: as §1
Another data set concerns p-c-RAF. The data set can be described thus: Immunostaining of xenograft tissue sections. In kind it is in vivo, nude mice. The settings on record: compared to control.
In data set [1] the test system is Ras. The data set can be described thus: Ras-GTP pull down assay in lysates from MIA PaCa-2 xenografts. In kind it is in vivo, nude mice. The note with it: compared to controls. Here is the method:
(§2) The inhibition of Ras by P-FTS 35 was further confirmed in vivo. The Ras-GTP pull down assay was used to test the capacity of P-FTS 35 to inhibit active Ras in fresh protein lysates from MIA PaCa-2 xenografts. Compared to controls, P-FTS 35, 50 and 100 mg/kg reduced RAS activation in xenografts by 62% and 70%, respectively (p<0.01, for both; FIG. 8A).

Data set [2] deals with Ras. Briefly: Ras-GTP pull down assay in Panc-1 cells. The data set is classed as cell-based, human. The note with it: 24 h. The text has this:
(§3) In the following experiments it was examined whether the pancreatic cancer growth inhibitory effect of P-FTS 35 is associated with down regulation of Ras signaling. For this purpose, we used the Ras-GTP pull down assay.

The subject of the next data set is p-ERK1/2. Briefly: Immunostaining of xenograft tissue sections. The settings on record: compared to control. The data set is classed as in vivo, nude mice. Here is the method:
C: Growth of xenograft tumors treated without or with P-FTS 35 and stained for p-ERK expression. The percentage of p-ERK positive cells/field were determined and expressed as the mean±SEM (*P<0.03).
as §2

Data set [3] can be described thus: 3-week oral toxicity in BALB/c mice. In kind it is in vivo. The method, then: The toxicity of P-FTS 35 in mice was further examined. Groups of 6 week-old female BALB/c mice (5 mice/group) were given by oral gavage once a day for 3 weeks P-FTS 35: 0, 75, 150, 250 and 350 mg/kg. […] The (sub-chronic) maximum tolerated dose of P-FTS 35 (3-wk period of observation) was determined to be at least 350 mg/kg/d.

The test system of the next data set is MIA PaCa-2 cells. Briefly: Pancreatic cancer xenograft model in nude mice. The data set is classed as in vivo. The settings on record: for reduction of tumor volume growth: day 25. The method, then:
The in vivo chemotherapeutic potential of P-FTS 35 was assessed using a pancreatic cancer xenograft model. MIA PaCa-2 cells were injected subcutaneously into the flank areas of nude mice. When palpable tumors were observed, the mice received P-FTS 35, 50 or 100 mg/kg/d by oral gavage in corn oil or just corn oil (control) for 25 days. On day 25 of treatment, P-FTS 35, 50 mg/kg/d, and P-FTS 35, 100 mg/kg/d reduced the tumor volume growth by 62% and 65%, respectively (p<0.05; FIG. 5).

Data set [4] has as its system RAF/MEK/ERK and PI3K/AKT pathways. Briefly: Immunoblots of Ras downstream effectors in Panc-1 cells. The data set is classed as cell-based, human.
Text: C: Immunoblots of p-c-RAF, c-RAF, p-MEK, MEK, p-AKT and AKT in whole cell protein extracts from Panc-1 cells treated with P-FTS 35 as indicated. Loading control: β-actin.
as §3
Background: In western blotting, separated proteins are transferred to a membrane and probed.

The next data set has as its system p-ERK and p-AKT. The data set can be described thus: Immunoblotting of MIA PaCa-2 xenografts. The data set is classed as in vivo, nude mice. Here is the method: B: Immunoblots of p-ERK, ERK, p-AKT and AKT in whole cell protein extracts from MIA PaCa-2 xenografts. Loading control: β-actin.
as §2

The target of the next data set is CYP 2D6 (Homo sapiens, UniProt P10635). The data set can be described thus: Metabolism by recombinant human CYP isoforms. The note with it: recombinant human CYP 25 pmol/ml, 37° C., NADPH-regenerating solution. In kind it is in vitro ADME.
The target in a further data set is CYP 3A4 (Homo sapiens, UniProt P08684). Briefly: Metabolism by recombinant human CYP isoforms. The note with it: recombinant human CYP 25 pmol/ml, 37° C., NADPH-regenerating solution. In kind it is in vitro ADME.
Another data set concerns the target CYP 2C9 (Homo sapiens, UniProt P11712). The data set can be described thus: Metabolism by recombinant human CYP isoforms. The settings on record: recombinant human CYP 25 pmol/ml, 37° C., NADPH-regenerating solution. The data set is classed as in vitro ADME.
Data set [5] is described as follows: Levels of PA and metabolites in blood and xenografts by HPLC. In kind it is in vivo, mice. The note with it: for metabolites detected in plasma and xenograft tumors: mice treated with PA or ASA. The method, then: The levels of PA and some of its metabolites in blood and xenografts from these mice were determined by HPLC according to the methods described by G. Xie et al. (Br J Pharmacol. 2012; 167(1):222-32).

For the next data set, the target named is CYP 1A2 (Homo sapiens, UniProt P05177). The data set can be described thus: Metabolism by recombinant human CYP isoforms. The data set is classed as in vitro ADME. The note with it: recombinant human CYP 25 pmol/ml, 37° C., NADPH-regenerating solution.
Data set [6] is described as follows: Tolerated dose in mice (PA, ASA). The data set is classed as in vivo. The method, then: The ability of phospho-aspirin (PA) to prevent breast cancer (BC) was evaluated using MDA-MB-231 human BC cells xenografted into one of the mammary glands of nude mice (orthotopic xenografts). PA was administered orally, 120 mg/kg/d 1 wk prior to inoculating the cells (the standard prevention protocol); acetylsalicylic acid (ASA) was given at an equimolar dose of 40 mg/kg/d. This was the highest dose of ASA that these mice could tolerate on a long-term basis. The dose of PA represents <10% of its maximum tolerated dose (MTD≧1,600 mg/kg), but was chosen so that a comparison between PA and ASA was possible.

Data set [7] relates to liver microsomes.
Another data set addresses CYP 2C19 (Homo sapiens, UniProt P33261). The data set can be described thus: Metabolism by recombinant human CYP isoforms. In kind it is in vitro ADME. The note with it: recombinant human CYP 25 pmol/ml, 37° C., NADPH-regenerating solution.
The subject of data set [8] is liver microsomes. Briefly: Metabolism in liver microsomes (HPLC).
The test system of data set [9] is MDA-MB-231 human BC cells. The data set can be described thus: Prevention of orthotopic MDA-MB-231 breast cancer xenografts in nude mice. In kind it is in vivo. The note with it: PA 120 mg/kg/d orally, from 1 wk prior to inoculating the cells.
The conditions of data set [10]: cited from earlier work.

Bounds are passed on as bounds.

Sequence of CYP 3A4 (P08684 whole entry, canonical isoform): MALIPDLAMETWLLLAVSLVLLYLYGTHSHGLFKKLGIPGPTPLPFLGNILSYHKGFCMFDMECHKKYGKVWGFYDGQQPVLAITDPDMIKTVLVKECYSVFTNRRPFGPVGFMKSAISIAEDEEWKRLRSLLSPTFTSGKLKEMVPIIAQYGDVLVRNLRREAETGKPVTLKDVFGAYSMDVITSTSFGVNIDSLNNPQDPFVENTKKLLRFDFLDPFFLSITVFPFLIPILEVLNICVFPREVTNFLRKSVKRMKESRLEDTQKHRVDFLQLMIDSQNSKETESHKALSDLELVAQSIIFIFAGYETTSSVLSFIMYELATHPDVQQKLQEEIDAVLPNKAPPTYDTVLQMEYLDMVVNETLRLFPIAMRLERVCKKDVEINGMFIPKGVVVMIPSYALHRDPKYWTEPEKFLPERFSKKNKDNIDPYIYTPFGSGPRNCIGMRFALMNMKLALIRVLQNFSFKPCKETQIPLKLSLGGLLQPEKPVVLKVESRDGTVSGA
Sequence of CYP 2D6 (P10635 whole entry, canonical isoform): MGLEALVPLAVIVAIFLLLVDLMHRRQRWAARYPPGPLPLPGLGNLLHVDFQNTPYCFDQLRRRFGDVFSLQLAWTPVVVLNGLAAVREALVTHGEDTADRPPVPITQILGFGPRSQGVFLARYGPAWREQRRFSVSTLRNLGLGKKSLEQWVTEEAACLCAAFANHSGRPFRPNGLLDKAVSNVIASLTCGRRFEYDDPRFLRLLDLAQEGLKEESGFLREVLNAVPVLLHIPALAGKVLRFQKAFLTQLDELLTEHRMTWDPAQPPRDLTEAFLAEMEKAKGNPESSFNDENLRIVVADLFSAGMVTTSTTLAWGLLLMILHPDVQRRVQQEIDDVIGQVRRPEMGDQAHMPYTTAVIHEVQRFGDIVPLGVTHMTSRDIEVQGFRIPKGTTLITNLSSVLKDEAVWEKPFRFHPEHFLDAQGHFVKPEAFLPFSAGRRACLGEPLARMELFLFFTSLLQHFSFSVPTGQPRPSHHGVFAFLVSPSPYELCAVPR
Sequence of CYP 2C19 (P33261 whole entry, canonical isoform): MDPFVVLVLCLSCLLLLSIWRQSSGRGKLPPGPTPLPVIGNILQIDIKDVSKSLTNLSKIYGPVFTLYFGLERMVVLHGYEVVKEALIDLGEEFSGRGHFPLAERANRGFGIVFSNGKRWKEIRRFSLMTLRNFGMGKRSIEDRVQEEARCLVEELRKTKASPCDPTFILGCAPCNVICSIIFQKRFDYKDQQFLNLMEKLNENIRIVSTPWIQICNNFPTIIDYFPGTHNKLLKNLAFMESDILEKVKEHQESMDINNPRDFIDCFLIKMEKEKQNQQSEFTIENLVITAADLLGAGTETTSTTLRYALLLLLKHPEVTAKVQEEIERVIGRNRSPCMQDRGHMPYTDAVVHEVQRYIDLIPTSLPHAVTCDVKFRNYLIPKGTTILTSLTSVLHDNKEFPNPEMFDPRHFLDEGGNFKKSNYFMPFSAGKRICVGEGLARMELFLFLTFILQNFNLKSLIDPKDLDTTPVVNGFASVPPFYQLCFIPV
Sequence of CYP 1A2 (P05177 whole entry, canonical isoform): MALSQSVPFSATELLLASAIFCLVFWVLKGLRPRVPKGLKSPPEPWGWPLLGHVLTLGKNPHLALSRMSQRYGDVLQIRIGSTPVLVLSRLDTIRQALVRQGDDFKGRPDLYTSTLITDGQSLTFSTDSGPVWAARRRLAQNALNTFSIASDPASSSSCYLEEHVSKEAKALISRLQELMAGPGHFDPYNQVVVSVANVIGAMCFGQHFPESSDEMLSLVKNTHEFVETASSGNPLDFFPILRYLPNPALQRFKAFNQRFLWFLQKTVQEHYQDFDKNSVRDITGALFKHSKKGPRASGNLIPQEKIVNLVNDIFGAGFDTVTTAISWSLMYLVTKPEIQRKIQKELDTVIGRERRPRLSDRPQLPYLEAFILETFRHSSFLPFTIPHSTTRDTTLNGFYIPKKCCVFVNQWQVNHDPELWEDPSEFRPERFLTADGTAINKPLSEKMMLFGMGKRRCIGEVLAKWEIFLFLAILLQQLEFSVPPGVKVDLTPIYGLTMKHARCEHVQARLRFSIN
Sequence of CYP 2C9 (P11712 whole entry, canonical isoform): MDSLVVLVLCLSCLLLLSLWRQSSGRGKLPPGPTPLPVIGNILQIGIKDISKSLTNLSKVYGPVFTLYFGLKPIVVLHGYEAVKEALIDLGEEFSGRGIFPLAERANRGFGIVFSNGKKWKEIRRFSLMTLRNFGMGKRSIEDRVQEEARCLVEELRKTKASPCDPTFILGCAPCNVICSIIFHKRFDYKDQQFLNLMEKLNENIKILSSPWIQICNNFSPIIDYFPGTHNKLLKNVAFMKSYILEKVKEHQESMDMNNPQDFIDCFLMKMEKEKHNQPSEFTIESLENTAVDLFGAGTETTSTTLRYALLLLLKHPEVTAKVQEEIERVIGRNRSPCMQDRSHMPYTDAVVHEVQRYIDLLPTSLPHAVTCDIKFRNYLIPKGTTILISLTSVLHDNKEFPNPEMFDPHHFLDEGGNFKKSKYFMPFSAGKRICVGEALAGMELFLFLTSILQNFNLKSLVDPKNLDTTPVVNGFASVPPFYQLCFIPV

For `CCOP(=O)(OCC)OCCCCOC(=O)c1ccccc1SC/C=C(\C)CC/C=C(\C)CCC=C(C)C`, the “cell growth, % control” value in the data set with Panc-1, with CFPAC-1, with Capan-2, in the data set on AsPC-1 and in the data set with MIA PaCa-2 was “decreases pancreatic cancer cell growth in a concentration-dependent manner” throughout. Besides, the “reduction of expression of p-c-RAF” value in the data set on p-c-RAF amounted to 73%. The “reduction of RAS activation in xenografts” value in the data set with Ras [1] (50 mg/kg) is recorded as 62%; with Ras [1] (100 mg/kg), 70%. Also, the “decrease of Ras-GTP compared with the parent compound (FTS)” value in the data set with Ras [2] (50 μM) is listed as “more pronounced”. The “inhibition of active Ras (Ras-GTP)” value in the data set with Ras [2] is listed as “significantly inhibited active Ras (Ras-GTP) in a concentration-dependent manner”. The “reduction of expression of p-ERK1/2” value with p-ERK1/2 stood at 71%. Besides, the “weight loss or other signs of toxicity” value in data set [3] (75, 150, 250 and 350 mg/kg oral gavage once a day for 3 weeks, female BALB/c mice) is “no weight loss or other signs of toxicity”. In data set [3] (female, BALB/c, mouse, in vivo, 3-wk period of observation, oral gavage, read-out: (sub-chronic) maximum tolerated dose), the MTD at 3 weeks was not below 350 mg/kg/day. The figures for the “reduction of tumor volume growth” value in the data set with MIA PaCa-2 cells (50 mg/kg/d oral gavage in corn oil) and in the data set with MIA PaCa-2 cells (100 mg/kg/d oral gavage in corn oil) were 62% and 65%, respectively. In addition, the “tolerability in the efficacy study” value in the data set on MIA PaCa-2 cells (50 or 100 mg/kg/d, 25 days) is “well tolerated”. Moreover, the “weight loss or other signs of toxicity in the efficacy study” value with MIA PaCa-2 cells (50 or 100 mg/kg/d, 25 days) was “no weight loss or other signs of toxicity”. Moreover, the “inhibition of the RAF/MEK/ERK and PI3K/AKT pathways” value in [4] is recorded as “significant time-dependent inhibition”. Moreover, in the data set on p-ERK and p-AKT, the “p-ERK and p-AKT in xenografts by immunoblotting” value is “inhibition of p-ERK and p-AKT”.

For `CC(=O)Oc1ccccc1C(=O)O` [ASA, acetylsalicylic acid], at CYP 2D6, the “oxidation (conversion of PSA to 5-OH-PSA) by CYP 2D6” value is “cannot be oxidized”. The “oxidation by CYP 3A4” value at CYP 3A4 is “cannot be oxidized”. Moreover, the “oxidation by CYP 2C9” value at CYP 2C9 is listed as “cannot be oxidized”. The “metabolites detected in plasma and xenograft tumors” value in data set [5] is “Only salicylic acid (SA) was detected”. The “oxidation by CYP 1A2” value on CYP 1A2 was “cannot be oxidized”. For the same molecule, the “highest dose that these mice could tolerate on a long-term basis” value in data set [6] (nude mice) stood at 40 mg/kg/day. In the data set on liver microsomes [7], the “oxidation by liver microsomes” value is reported as “not appreciably oxidized”. Also, the “oxidation (conversion of PSA to 5-OH-PSA) by CYP 2C19” value at CYP 2C19 is reported as “cannot be oxidized”.

Consider `CCOP(=O)(OCC)OCCCCOC(=O)c1ccccc1OC(C)=O` [PA, phospho-aspirin], for which the “major metabolites detected in liver microsomes” value in the data set with liver microsomes [8] (HPLC) was “phospho-salicylic acid [PSA], 3-OH-PSA and 5-OH-PSA”. Besides, in the data set with liver microsomes [8] (PA-treated liver microsomes), the “deacetylation in liver microsomes” value was “readily deacetylated”. Further, the “average tumor volume reduced compared to controls” value in [9] amounted to 62%. In addition, in data set [9] (of the 20 treated mice), the “treated mice that had no tumors” value was found to be 20% and the “treated mice that had tumors <100 mm^3” value was 30%. Moreover, the “intact PA in plasma or xenografts” value in data set [5] (mice treated with PA 120 mg/kg/d, HPLC) is recorded as “No intact PA in either plasma or xenografts was detected”. Further, the “metabolites detected in plasma and xenograft tumors” value in data set [5] is given as “Only salicylic acid (SA) was detected”. Also, the “difference in SA levels between PA and ASA groups” value in [5] (plasma and xenografts) is reported as “no difference in SA levels”. In [6] (mice), the “maximum tolerated dose (MTD)” value is ≥ 1,600 mg/kg.

As for `O=C(O)c1ccccc1O` [SA, salicylic acid], in the data set on liver microsomes [7], the “oxidation by liver microsomes” value is listed as “not appreciably oxidized”.

As to `CC1=C(CC(=O)O)c2cc(F)ccc2/C1=C\c1ccc([S+](C)[O-])cc1` (stereo not drawn) [sulindac], in data set [10], the “gastrointestinal side effects, share of patients” value was “up to 20%”; the “skin rash and pruritus, share of patients” value is 5%.

(Values after patent US20140121185A1 (Medicon Pharmaceuticals, Inc., priority 2012, published 2014).)
